In patent US8026274B2, “Use of oxandrolone in the treatment of burns and other wounds” (Savient Pharmaceuticals, Inc., priority 1996, dated 2011):
“Also recorded” adds a separate entry of the source.

What was measured:
[1] = system: pressure sores (decubitus ulcers) in a paraplegic patient; experiment: Example 3: oxandrolone treatment of pressure sores (decubitus ulcers); assay type: in vivo, human; conditions: 20 mg per day orally, preliminary result
Text: A paraplegic patient was suffering from pressure sores (decubitus ulcers) which had been unhealed for over one year. […] Further experiments using oxandrolone for treatment of pressure sores and other wounds are planned.

[2] = system: burn patients (deep burn of 30-50% of body surface); experiment: Example 1: effect of oxandrolone on post-burn catabolism (I), recovery phase in burn patients; assay type: in vivo, human
Method: A study on the effect of oxandrolone on post-burn patients was performed as described below.
The patients included in this study had undergone: • a. catabolic phase until 80-90% of wound closure (4-10 weeks); • b. loss of 15-25% body weight (mostly lean body mass) during catabolic phase despite optimum nutrition;
The transition from “catabolic” to recovery “anabolic” was defined by: • a. No need for life support measures, being stable and out of the Intensive Care Unit (ICU); • b. No active infection (stress); • c. Open wound (not counting donor sites) not exceeding 10% Total Body Surface (TBS); • d. Patient taking oral diet with supplements or tube feeding (off parenteral feeding); • e. patient can actively participate in a physical therapy program with active ROM exercises accentuating the anabolic stimulus of exercise.
All patients were located in the burn step-down unit or in an acute rehabilitation hospital where daily information is retrieved from the physiatrist, nutritionist, and therapist.
The patients were divided into three groups in a prospective randomized manner: • Group 1: Standard nutritional goals as defined by the nutrition support service. • Group 2: Same as Group 1 plus 2-3 Met-Rx™ (protein supplement) per day (sufficient protein to increase daily protein intake to 2-2.2 g/kg/day). • Group 3: Same as Group 2 plus oxandrolone 20 mg orally four times daily. Measurements
The following factors were checked: • a. Subjective energy level (per Braintree study) 0-10; • b. Physical therapy index^1 (per Braintree study) 0-10: • 0 completes 25% session with fatigue • 2 completes 50% session with fatigue • 4 completes 75% session with fatigue • 6 completes 100% session with fatigue • 8 completes 100% session with no fatigue • 10 completes 100% session and more with no fatigue; • c. Weekly weight gain; • d. Daily nutritional profiles; • e. Measurement of lean body mass by bioelective impedance. ^1 assessment of muscle strength and endurance
The onset of the study was defined as the onset of the recovery phase (anabolic phase). Patients were studied for 3 weeks (from the onset of anabolism).

[3] = in contrast to the majority of oral androgenic anabolic steroids; cited from earlier work
[4] = system: patients with alcoholic hepatitis; conditions: dosages of up to 80 mg/day; cited from earlier work
[5] = doses below 80 mg; cited from earlier work
[6] = system: burn patients (deep burn of 30-50% of body surface); experiment: Example 2: effect of oxandrolone on post-burn catabolism (II), first three weeks of recovery phase; assay type: in vivo, human
Method: Another study on the effect of oxandrolone on post-burn patients was carried out as follows.
The onset of the study was defined as the onset of the recovery phase (anabolic phase). The study period included the first three weeks of the recovery phase. Although somewhat arbitrary, the beginning of the recovery period was determined for all patients using the following criteria: • a. No need for life support measures, with a stable cardiopulmonary status; • b. No active infection; • c. Basal body temperature below 99.5° F.; • d. Metabolic rate at rest (indirect calorimetry) being less than 130% of normal; • e. Open wound (not counting donor sites) not exceeding 10% TBS; • f. Patient taking adequate oral diet with supplements or tube feeding and off all parenteral feeding; • g. active participation in a physical therapy program including resistance exercises especially to large muscle groups.
The patients were divided into three groups in a prospective randomized manner: • Group 1: High protein high calorie ad lib oral diet and protein supplement Met-Rx™. The supplement was given in a quantity equal to approximately one liter so that total protein intake would approximate 2 g/kg/day. • Group 2: Same as Group I with the addition of oxandrolone 10 mg orally twice a day. • Group 3: ad lib oral diet and a protein hydrolysate supplement (Ensure-HN or Sustacal). These supplements contain approximately 40-45 g/l protein, 140-150 g/l carbohydrate and 30-37 g/l fat. Daily protein intake consumed equalled 1.3-1.5 g/kg or 75% above the RDA value for healthy normals of 0.8 g/kg. This group was managed in the ten months prior to the onset of this study.
All patients were located in the burn/trauma step-down unit and then transferred to an acute rehabilitation hospital usually within the first week of onset of the recovery period. A burn nurse coordinator followed all patients at the rehabilitation hospitals. All patients were monitored until discharge but only the first three week period was used for the study period.
The following factors were checked: • a. Fatigue was measured objectively through increases in pulse of over 75% of predicted maximum (based on age) and a respiratory rate exceeding 30 breaths per minute beyond one minute after completion of the activity. • b. Muscle function was quantitated using a physical therapy index. The physical therapy program was determined for each patient by the burn therapist team based on optimum projected goals to be achieved at the three week period. Standard isokinetic and resistance exercises were used to increase strength. Ambulation, stair climbing and the stationary bike were used to increase endurance. Since the basic components of therapy programs were nearly identical between patients, an index was developed which quantitated progress of patient performance:
• c. Body weight; • d. Daily nutritional profiles; • e. Liver function
Within each group, paired data was analyzed using Dunnett's T-test comparing individual time periods. Between groups, analysis was compared by use of a nonparametric method, the Wilcoxan Signed Rank Test. Standard regression analysis was also performed. A p<0.05 was considered significant.

[7] = in vivo; cited from earlier work
[8] = Group III: oxandrolone 20 mg orally four times daily plus Met-Rx, 3 weeks
[9] = Group 2: oxandrolone 10 mg orally twice a day plus Met-Rx

Question: Which results are given for C[C@]12COC(=O)C[C@@H]1CC[C@@H]1[C@@H]2CC[C@@]2(C)[C@H]1CC[C@]2(C)O [oxandrolone, 17α-methyl-17β-hydroxy-2-oxa-5α-androstan-3-one]?
Answer: healing of pressure sores unhealed for over one year [1]: the sores began to heal; energy level (0-10) [2, 8]: markedly improved; therapy (physical therapy index 0-10) [2, 8]: markedly improved; weight gain relative to Group I (standard nutrition) ([2]; Group III: oxandrolone 20 mg orally four times daily plus Met-Rx, 4 patients, 3 weeks): four times that of Group I; food intake ([2]; Group III: oxandrolone plus Met-Rx, compared with Group II): apparent added stimulus to food intake; lean body weight gain as share of weight gain, by bioelective impedance ([2]; combination of Met-Rx and oxandrolone): 80%; hepatic metabolism [3]: relatively little hepatic metabolism; safety [4]: safe; water retention [5]: not reported to occur; maintenance of weight after discontinuation ([6]; 3 of 6 patients followed for eight weeks after discontinuation of three weeks of oxandrolone): the weight remained; average time of discharge from the rehabilitation or recovery phase to home [6, 9]: 22 ± 4 days; weight gain over the three week period relative to Group 1 (Met-Rx alone) [6, 9]: double that of Group 1; weight gain relative to retrospective Group 3 (standard supplements) [6, 9]: nearly four times that of retrospective Group 3; also recorded: significantly increased; physical therapy index (muscle strength and endurance, 0-10) ([6]; Group 2: oxandrolone 10 mg orally twice a day plus Met-Rx, three weeks): performance exceeded expectations; also recorded: significantly higher than either of the other groups; also recorded: significantly increased; liver function tests / chemical abnormality ([6]; Group 2: oxandrolone 10 mg orally twice a day plus Met-Rx, one patient): transient small increase in alkaline phosphatase; hirsutism ([6]; the three women in the oxandrolone group): No hirsutism; anabolic activity relative to its androgenic activity [7]: approximately 6 times; anabolic activity relative to that of methyltestosterone [7]: 6.3 times
